# Numbers after ± are expanded uncertainties.
# Test: xn = mol fraction of the nth substance listed
# Settings: Liquid, Vibrating tube method
compound,measurement,setting,value
COC(=O)OC [dimethyl carbonate] + C=C(C)C(=O)OCCCC,mass density,"293.15 K, x1 = 1",1069.79 ± 0.067 kg/m3
same,mass density,"303.15 K, x1 = 1",1056.75 ± 0.063 kg/m3
same,mass density,"313.15 K, x1 = 1",1043.37 ± 0.06 kg/m3
C=Cc1ccccc1 [styrene] + COC(=O)OC,mass density,"293.15 K, x2 = 0",906.26 ± 0.075 kg/m3
same,mass density,"293.15 K, x2 = 0.0246",909.146 ± 0.077 kg/m3
same,mass density,"293.15 K, x2 = 0.0498",912.112 ± 0.076 kg/m3
same,mass density,"293.15 K, x2 = 0.1006",918.267 ± 0.075 kg/m3
same,mass density,"293.15 K, x2 = 0.1506",924.493 ± 0.073 kg/m3
same,mass density,"293.15 K, x2 = 0.2004",930.891 ± 0.072 kg/m3
same,mass density,"293.15 K, x2 = 0.2506",937.533 ± 0.07 kg/m3
same,mass density,"293.15 K, x2 = 0.3008",944.38 ± 0.069 kg/m3
same,mass density,"293.15 K, x2 = 0.3498",951.272 ± 0.067 kg/m3
same,mass density,"293.15 K, x2 = 0.4007",958.655 ± 0.066 kg/m3
same,mass density,"293.15 K, x2 = 0.4498",966.048 ± 0.065 kg/m3
same,mass density,"293.15 K, x2 = 0.5001",973.84 ± 0.063 kg/m3
same,mass density,"293.15 K, x2 = 0.5499",981.838 ± 0.062 kg/m3
same,mass density,"293.15 K, x2 = 0.5996",990.075 ± 0.061 kg/m3
same,mass density,"293.15 K, x2 = 0.6507",998.871 ± 0.06 kg/m3
same,mass density,"293.15 K, x2 = 0.7001",1007.72 ± 0.062 kg/m3
same,mass density,"293.15 K, x2 = 0.7496",1016.93 ± 0.065 kg/m3
same,mass density,"293.15 K, x2 = 0.7997",1026.61 ± 0.067 kg/m3
same,mass density,"293.15 K, x2 = 0.8501",1036.78 ± 0.07 kg/m3
same,mass density,"293.15 K, x2 = 0.9001",1047.29 ± 0.074 kg/m3
same,mass density,"293.15 K, x2 = 0.9499",1058.27 ± 0.077 kg/m3
same,mass density,"293.15 K, x2 = 0.9747",1063.93 ± 0.079 kg/m3
same,mass density,"303.15 K, x2 = 0",897.392 ± 0.077 kg/m3
same,mass density,"303.15 K, x2 = 0.0262",900.37 ± 0.079 kg/m3
same,mass density,"303.15 K, x2 = 0.0502",903.146 ± 0.079 kg/m3
same,mass density,"303.15 K, x2 = 0.1004",909.105 ± 0.077 kg/m3
same,mass density,"303.15 K, x2 = 0.1506",915.204 ± 0.076 kg/m3
same,mass density,"303.15 K, x2 = 0.2005",921.462 ± 0.074 kg/m3
same,mass density,"303.15 K, x2 = 0.2502",927.883 ± 0.073 kg/m3
same,mass density,"303.15 K, x2 = 0.3001",934.514 ± 0.071 kg/m3
same,mass density,"303.15 K, x2 = 0.3502",941.367 ± 0.07 kg/m3
same,mass density,"303.15 K, x2 = 0.4",948.407 ± 0.068 kg/m3
same,mass density,"303.15 K, x2 = 0.45",955.705 ± 0.067 kg/m3
same,mass density,"303.15 K, x2 = 0.5003",963.262 ± 0.065 kg/m3
same,mass density,"303.15 K, x2 = 0.5498",971.001 ± 0.064 kg/m3
same,mass density,"303.15 K, x2 = 0.5998",979.074 ± 0.063 kg/m3
same,mass density,"303.15 K, x2 = 0.6497",987.452 ± 0.062 kg/m3
same,mass density,"303.15 K, x2 = 0.7007",996.305 ± 0.061 kg/m3
same,mass density,"303.15 K, x2 = 0.7502",1005.27 ± 0.062 kg/m3
same,mass density,"303.15 K, x2 = 0.8002",1014.68 ± 0.065 kg/m3
same,mass density,"303.15 K, x2 = 0.85",1024.5 ± 0.067 kg/m3
same,mass density,"303.15 K, x2 = 0.8999",1034.72 ± 0.07 kg/m3
same,mass density,"303.15 K, x2 = 0.9502",1045.5 ± 0.073 kg/m3
same,mass density,"303.15 K, x2 = 0.975",1051.05 ± 0.076 kg/m3
same,mass density,"313.15 K, x2 = 0",888.472 ± 0.08 kg/m3
same,mass density,"313.15 K, x2 = 0.0256",891.333 ± 0.082 kg/m3
same,mass density,"313.15 K, x2 = 0.0501",894.082 ± 0.081 kg/m3
same,mass density,"313.15 K, x2 = 0.0998",899.822 ± 0.08 kg/m3
same,mass density,"313.15 K, x2 = 0.1514",905.948 ± 0.078 kg/m3
same,mass density,"313.15 K, x2 = 0.2007",911.977 ± 0.077 kg/m3
same,mass density,"313.15 K, x2 = 0.2506",918.225 ± 0.075 kg/m3
same,mass density,"313.15 K, x2 = 0.3008",924.745 ± 0.073 kg/m3
same,mass density,"313.15 K, x2 = 0.3499",931.26 ± 0.072 kg/m3
same,mass density,"313.15 K, x2 = 0.4006",938.218 ± 0.07 kg/m3
same,mass density,"313.15 K, x2 = 0.4501",945.282 ± 0.069 kg/m3
same,mass density,"313.15 K, x2 = 0.5103",954.115 ± 0.067 kg/m3
same,mass density,"313.15 K, x2 = 0.5503",960.19 ± 0.066 kg/m3
same,mass density,"313.15 K, x2 = 0.5995",967.947 ± 0.065 kg/m3
same,mass density,"313.15 K, x2 = 0.6499",976.16 ± 0.064 kg/m3
same,mass density,"313.15 K, x2 = 0.6999",984.624 ± 0.063 kg/m3
same,mass density,"313.15 K, x2 = 0.7503",993.432 ± 0.062 kg/m3
same,mass density,"313.15 K, x2 = 0.8002",1002.61 ± 0.062 kg/m3
same,mass density,"313.15 K, x2 = 0.8499",1012.09 ± 0.064 kg/m3
same,mass density,"313.15 K, x2 = 0.9001",1022.04 ± 0.067 kg/m3
same,mass density,"313.15 K, x2 = 0.9497",1032.41 ± 0.07 kg/m3
same,mass density,"313.15 K, x2 = 0.975",1037.84 ± 0.072 kg/m3
C=C(C)C(=O)OCCCC [butyl 2-methyl-2-propenoate] + COC(=O)OC,mass density,"293.15 K, x2 = 0",895.231 ± 0.11 kg/m3
same,mass density,"293.15 K, x2 = 0.0253",897.401 ± 0.11 kg/m3
same,mass density,"293.15 K, x2 = 0.0496",899.525 ± 0.11 kg/m3
same,mass density,"293.15 K, x2 = 0.1",904.247 ± 0.1 kg/m3
same,mass density,"293.15 K, x2 = 0.1512",909.195 ± 0.099 kg/m3
same,mass density,"293.15 K, x2 = 0.2002",914.234 ± 0.095 kg/m3
same,mass density,"293.15 K, x2 = 0.2501",919.652 ± 0.092 kg/m3
same,mass density,"293.15 K, x2 = 0.3",925.514 ± 0.088 kg/m3
same,mass density,"293.15 K, x2 = 0.3496",931.664 ± 0.085 kg/m3
same,mass density,"293.15 K, x2 = 0.4002",938.381 ± 0.082 kg/m3
same,mass density,"293.15 K, x2 = 0.45",945.36 ± 0.079 kg/m3
same,mass density,"293.15 K, x2 = 0.4998",952.885 ± 0.076 kg/m3
same,mass density,"293.15 K, x2 = 0.5499",960.906 ± 0.074 kg/m3
same,mass density,"293.15 K, x2 = 0.6",969.499 ± 0.071 kg/m3
same,mass density,"293.15 K, x2 = 0.6499",978.774 ± 0.07 kg/m3
same,mass density,"293.15 K, x2 = 0.7003",988.865 ± 0.069 kg/m3
same,mass density,"293.15 K, x2 = 0.7501",999.691 ± 0.068 kg/m3
same,mass density,"293.15 K, x2 = 0.7998",1011.24 ± 0.072 kg/m3
same,mass density,"293.15 K, x2 = 0.8502",1024.04 ± 0.076 kg/m3
same,mass density,"293.15 K, x2 = 0.8997",1037.82 ± 0.082 kg/m3
same,mass density,"293.15 K, x2 = 0.9499",1053.1 ± 0.087 kg/m3
same,mass density,"293.15 K, x2 = 0.9747",1061.18 ± 0.091 kg/m3
same,mass density,"303.15 K, x2 = 0",885.991 ± 0.11 kg/m3
same,mass density,"303.15 K, x2 = 0.0255",888.128 ± 0.11 kg/m3
same,mass density,"303.15 K, x2 = 0.0511",890.378 ± 0.11 kg/m3
same,mass density,"303.15 K, x2 = 0.0984",894.561 ± 0.11 kg/m3
same,mass density,"303.15 K, x2 = 0.1496",899.445 ± 0.1 kg/m3
same,mass density,"303.15 K, x2 = 0.1998",904.542 ± 0.098 kg/m3
same,mass density,"303.15 K, x2 = 0.251",909.93 ± 0.094 kg/m3
same,mass density,"303.15 K, x2 = 0.3",915.538 ± 0.091 kg/m3
same,mass density,"303.15 K, x2 = 0.3498",921.462 ± 0.087 kg/m3
same,mass density,"303.15 K, x2 = 0.4002",927.876 ± 0.084 kg/m3
same,mass density,"303.15 K, x2 = 0.4505",934.768 ± 0.081 kg/m3
same,mass density,"303.15 K, x2 = 0.5001",942.022 ± 0.078 kg/m3
same,mass density,"303.15 K, x2 = 0.5497",949.757 ± 0.076 kg/m3
same,mass density,"303.15 K, x2 = 0.6003",958.326 ± 0.074 kg/m3
same,mass density,"303.15 K, x2 = 0.6507",967.581 ± 0.072 kg/m3
same,mass density,"303.15 K, x2 = 0.7003",977.274 ± 0.07 kg/m3
same,mass density,"303.15 K, x2 = 0.7503",987.854 ± 0.069 kg/m3
same,mass density,"303.15 K, x2 = 0.8003",999.303 ± 0.069 kg/m3
same,mass density,"303.15 K, x2 = 0.8497",1011.72 ± 0.073 kg/m3
same,mass density,"303.15 K, x2 = 0.8997",1025.31 ± 0.079 kg/m3
same,mass density,"303.15 K, x2 = 0.95",1040.3 ± 0.083 kg/m3
same,mass density,"303.15 K, x2 = 0.9746",1048.26 ± 0.088 kg/m3
same,mass density,"313.15 K, x2 = 0",876.19 ± 0.12 kg/m3
same,mass density,"313.15 K, x2 = 0.0248",878.23 ± 0.12 kg/m3
same,mass density,"313.15 K, x2 = 0.0506",880.426 ± 0.11 kg/m3
same,mass density,"313.15 K, x2 = 0.1009",884.856 ± 0.11 kg/m3
same,mass density,"313.15 K, x2 = 0.1505",889.457 ± 0.1 kg/m3
same,mass density,"313.15 K, x2 = 0.2003",894.361 ± 0.1 kg/m3
same,mass density,"313.15 K, x2 = 0.2512",899.681 ± 0.097 kg/m3
same,mass density,"313.15 K, x2 = 0.3005",905.153 ± 0.093 kg/m3
same,mass density,"313.15 K, x2 = 0.3502",910.961 ± 0.09 kg/m3
same,mass density,"313.15 K, x2 = 0.4009",917.353 ± 0.087 kg/m3
same,mass density,"313.15 K, x2 = 0.4509",924.075 ± 0.084 kg/m3
same,mass density,"313.15 K, x2 = 0.4999",931.103 ± 0.081 kg/m3
same,mass density,"313.15 K, x2 = 0.5506",938.855 ± 0.078 kg/m3
same,mass density,"313.15 K, x2 = 0.6",947.003 ± 0.076 kg/m3
same,mass density,"313.15 K, x2 = 0.6502",955.954 ± 0.074 kg/m3
same,mass density,"313.15 K, x2 = 0.7002",965.503 ± 0.072 kg/m3
same,mass density,"313.15 K, x2 = 0.7503",975.976 ± 0.071 kg/m3
same,mass density,"313.15 K, x2 = 0.7999",987.089 ± 0.071 kg/m3
same,mass density,"313.15 K, x2 = 0.8501",999.417 ± 0.071 kg/m3
same,mass density,"313.15 K, x2 = 0.8998",1012.69 ± 0.076 kg/m3
same,mass density,"313.15 K, x2 = 0.9498",1027.3 ± 0.08 kg/m3
same,mass density,"313.15 K, x2 = 0.9751",1035.15 ± 0.085 kg/m3

# Source: the NIST ThermoML archive (doi:10.1016/j.jct.2008.06.017)
